# Measured values published in publication PMC6358866 (International Journal of Molecular Sciences, 2019).
# Key:
# [1] = tested on: Staphylococus aureus ATCC 6538 biofilm; experiment: Activity against biofilms on 96-well plates after withdrawal of the antimicrobial (additional 24 h in MHB II); format: cell-based, Staphylococcus aureus; conditions: after withdrawal and additional 24 h in MHB II
# Experimental: (§1) Bacterial strains were obtained from the Polish Collection of Microorganisms (Polish Academy of Science, Wroclaw, Poland). Three Gram-positive and two Gram-negative strains linked with CL-related infections were chosen for the study (Staphylococus aureus ATCC 6538, Staphylococcus epidermidis ATCC 14990, Pseudomonas aeruginosa ATCC 9027, Escherichia coli ATCC 25922, and Enterococcus faecalis ATCC 29212). The bacteria were cultured in a Mueller Hinton Broth II (MHB, Biocorp, Warsaw, Poland) overnight, under aerobic conditions at 37 °C. […] Bacterial suspensions were added to 96-well plates (Kartell, Noviglio, Italy) at initial inoculums of ca. 5 × 10^8 CFU/mL and incubated under aerobic conditions with shaking (120 rpm) at 37 °C for 24 h. […] After exposure, the wells were washed three times with PBS and a solution of resazurin (Sigma Aldrich, St. […] This cell viability reagent is metabolized by bacterial dehydrogenases upon contact with living cells. As a result, the blue dye is reduced to a pink resorufin. After 1.5 h of incubation, the absorbance was measured at 570 and 600 nm using a microplate reader (Thermo Fisher Scientific, Waltham, MA, USA). […] The procedure was conducted as described in Section 4.3, with the difference that after exposure to antimicrobials, the wells were washed three times with PBS and pure MHB II was added. The samples were incubated for another 24 h (aerobic conditions, 120 rpm shaking, 37 °C). […] The absorbance was measured at the same wave lengths and metabolic activity was calculated according to the formula given in Section 4.3. The presented results are means of nine results obtained on three different days.
# [2] = tested on: Escherichia coli ATCC 25922 biofilm; experiment: as above; format: cell-based; conditions: after withdrawal and additional 24 h in MHB II
# Experimental: as §1
# [3] = tested on: Enterococcus faecalis ATCC 29212 biofilm; experiment: as above; format: cell-based; conditions: after withdrawal and additional 24 h in MHB II; for concentration permanently eradicating the biofilm: EF biofilm on polystyrene
# Experimental: as §1
# [4] = tested on: Staphylococcus epidermidis ATCC 14990 biofilm; experiment: as above; format: cell-based; conditions: after withdrawal and additional 24 h in MHB II
# Experimental: as §1
# [5] = tested on: Pseudomonas aeruginosa ATCC 9027 biofilm; experiment: as above; format: cell-based; conditions: lowest concentration giving permanent reduction of metabolic activity by at least 50 ± 5%; after withdrawal and additional 24 h in MHB II
# Experimental: as §1
# [6] = tested on: Escherichia coli ATCC 25922 biofilm on CLs; experiment: Activity of lipopeptide and CL liquids against biofilms formed on contact lenses; format: cell-based; conditions: EC biofilm on CLs, lipopeptide in PBS, 24 h, resazurin
# Experimental: (§2) Bacterial strains were obtained from the Polish Collection of Microorganisms (Polish Academy of Science, Wroclaw, Poland). Three Gram-positive and two Gram-negative strains linked with CL-related infections were chosen for the study (Staphylococus aureus ATCC 6538, Staphylococcus epidermidis ATCC 14990, Pseudomonas aeruginosa ATCC 9027, Escherichia coli ATCC 25922, and Enterococcus faecalis ATCC 29212). The bacteria were cultured in a Mueller Hinton Broth II (MHB, Biocorp, Warsaw, Poland) overnight, under aerobic conditions at 37 °C. After incubation, the liquid cultures were centrifuged (2500 rpm for 10 min) and washed with phosphoric buffer (PBS, AppliChem, Darmstadt, Germany) three times and resuspended in fresh MHB II for inoculums appropriate for the performed assays.
# (§3) Bacterial biofilms were cultured on commercially available CLs (1-Day Acuvue Moist, containing Etafilcon A, obtained from Johnson and Johnson Vision Care, Jacksonsville, FL, USA). The CLs were placed in polystyrene 24-well plates (Orange Scientific, Braine-l’Alleud, Belgium) in bacterial suspensions in MHB II at initial inoculums of ca. 5 × 10^8 CFU/mL. After 24 h of incubation (aerobic conditions, 120 rpm shaking, 37 °C), all of the CLs were rinsed three times with PBS. […] After incubation, resazurin was added (final concentration per sample = 0.01%) and absorbance was measured as in the assays 4.3 and 4.4. Positive controls contained CLs with bacterial biofilms placed in pure PBS, while sterile CLs incubated in MHB II replaced with PBS served as negative controls. The experiments were performed in triplicate on three different days.
# [7] = tested on: Enterococcus faecalis ATCC 29212 biofilm on CLs; experiment: as above; format: cell-based; conditions: EF biofilm on CLs, lipopeptide in PBS, 24 h, resazurin
# Experimental: as §2, §3
# [8] = tested on: Staphylococcus epidermidis ATCC 14990 biofilm on CLs; experiment: as above; format: cell-based; conditions: SE biofilm on CLs, lipopeptide in PBS, 24 h, resazurin
# Experimental: as §2, §3
# [9] = tested on: Pseudomonas aeruginosa ATCC 9027 biofilm on CLs; experiment: as above; format: cell-based; conditions: PA biofilm on CLs, lipopeptide in PBS, 24 h, resazurin
# Experimental: as §2, §3
# [10] = tested on: Enterococcus faecalis ATCC 29212 biofilm; experiment: Effect of the lipopeptide on lens liquids against biofilms on 96-well polystyrene plates; format: cell-based; conditions: EF biofilm on polystyrene, lipopeptide alone in PBS, 'the same concentration' (32 or 16 mg/L), 24 h
# Experimental: as §2, with “After incubation, the liquid cultures were centrifuged (2500 rpm for 10 min) and washed with phosphoric buffer (PBS, AppliChem, Darmstadt, Germany) three times and resuspended in fresh MHB II for inoculums appropriate for the performed assays.” left out
# (§4) Bacterial suspensions were added to 96-well plates (Kartell, Noviglio, Italy) at initial inoculums of ca. 5 × 10^8 CFU/mL and incubated under aerobic conditions with shaking (120 rpm) at 37 °C for 24 h. […] After 1.5 h of incubation, the absorbance was measured at 570 and 600 nm using a microplate reader (Thermo Fisher Scientific, Waltham, MA, USA). […] The metabolic activity of bacteria in the samples was measured according to the following formula:
# (§5) Positive controls (100%) were wells with pre-grown biofilms where the MHB II was replaced with pure PBS, while negative controls were wells with pure MHB II (also replaced with PBS). After 24 h of incubation (aerobic conditions, 120 rpm shaking, 37 °C), the solutions were replaced with resazurin in MHB II and the results were read and presented as described in Section 4.3.
# [11] = tested on: Staphylococcus epidermidis ATCC 14990 biofilm; experiment: as above; format: cell-based; conditions: SE biofilm on polystyrene, lipopeptide alone in PBS, 24 h
# Experimental: as §2, with “After incubation, the liquid cultures were centrifuged (2500 rpm for 10 min) and washed with phosphoric buffer (PBS, AppliChem, Darmstadt, Germany) three times and resuspended in fresh MHB II for inoculums appropriate for the performed assays.” left out
# as §4, §5
# [12] = lowest concentration giving permanent reduction of metabolic activity by at least 50 ± 5%
# [13] = lowest concentration giving permanent reduction of metabolic activity by at least 90 ± 5%
substance,measurement,setting,value
(C10)2-KKKK-NH2 [Lipopeptide],concentration permanently eliminating living bacterial cells,[1]; SA biofilm on polystyrene,32 mg/L
same,MBEC II 50,[1]; [12],16 µg/mL
same,MBEC II 90,[1]; [13],32 µg/mL
same,MBEC II 50,[2]; [12],64 µg/mL
same,MBEC II 90,[2]; [13],64 µg/mL
same,concentration permanently eradicating the biofilm,[3]; listed as (C10)2-KKKK-NH2,32 mg/L
same,concentration permanently eradicating the biofilm,[3]; listed as lipopeptide,32 to 256 mg/L
same,MBEC II 50,[3]; [12],32 µg/mL
same,MBEC II 90,[3]; [13],32 µg/mL
same,concentration giving a permanent antibiofilm effect,[4]; SE biofilm on polystyrene,16 mg/L
same,MBEC II 50,[4]; [12],16 µg/mL
same,MBEC II 90,[4]; [13],16 µg/mL
same,MBEC II 50,[5],64 µg/mL
same,concentration reducing metabolic activity by more than 90%,[6],32 mg/L
same,concentration reducing metabolic activity of bacteria by at least 90%,[7],8 mg/L
same,concentration reducing metabolic activity of bacteria by at least 90%,[8],8 mg/L
same,concentration reducing metabolic activity by more than 90%,[9],32 mg/L
same,reduction of metabolic activity in the biofilm,[10],ca. 95%
same,concentration at which highly active against biofilm,[11],16 mg/L
